Patent EP0489933A1, “BILE ALCOHOL AND DRUG CONTAINING THE SAME AS ACTIVE INGREDIENT” (TSUMURA CO., LTD., priority 1990, dated 1992)

What was measured:
male SD rats = assay: Thrombus formation in abdominal vena cava; type: in vivo; conditions: 30 mg/kg, p.o.; dry weight of thrombus
Method: Each of male SD rats of 130 to 210 g in body weight was anesthetized with Nembutal® (50 mg/kg, i.p.) and subjected to median incision ventrotomy to release about a 2 cm portion of abdominal vena cava below the renal vein. Blood flow of the thus released vena cava was temporarily stopped for 5 minutes with 8 hemostatic clips. After recirculating blood for 5 minutes by removing the hemostatic clips, […] was ligated at a position just below the renal vein and the median-incised part was sutured. Two hours after the ligature, the thus treated rat was again subjected to ventrotomy to excise abdominal vena cava. The thus excised blood vessel was cut open on a filter paper which had been moistened with physiological saline, in order to take out thrombus. The thrombus thus obtained was washed with physiological saline to remove adhered blood and the like substances and then dried at 80°C for 12 hours or longer to measure its dry weight. In this instance, each drug to be tested was orally administered 90 minutes before the clipping to examine its effect by single administration on the formation of thrombus. Separately from this, each test drug was administered to 6-week-old male SD rat continuously for 7 days, thrombus was prepared in the eighth day in the same manner as described above and dry weight of the thrombus was measured, in order to examine effect of the continuous 7 day administration on the thrombus formation.

male mice of ddY line = type: in vivo; conditions: 50 mg/kg, i.p., 60 minutes before KCN (3.0 mg/kg) tail intravenous injection
male rats of SD line = assay: High cholesterol feed: blood viscosity, serum total cholesterol, triglyceride, GOT; type: in vivo; conditions: 100 mg/kg/day, p.o., 4 days
Method: In this experiment, 5-week-old male rats of SD line (5 individuals per one group) were used after rearing them for 1 week using normal feed, and each compound of the present invention (100 mg/kg) was administered orally once a day for 4 days. Simultaneously with the commencement of the administration, the normal feed was replaced by a high cholesterol feed. After completion of the administration, they were subjected to fasting treatment for 24 hours. Thereafter, each rat was subjected to ventrotomy under anesthesia with Nembutal® (Dainabot Co., Ltd.; 50 mg/kg, i.p.) to collect blood from abdominal aorta, and the collected blood sample was checked for its blood viscosity using a viscometer (Biolyzer, Tokyo Keiki Co., Ltd.). At the same time, total cholesterol (Wako Pure Chemical Industries, Ltd.; Cholesterol E-test wako), triglyceride (Wako Pure Chemical Industries, Ltd.; Triglyceride G-test wako) and GOT (Wako Pure Chemical Industries, Ltd.; GOT-UV test-wako) in serum samples were measured.

Qualitative solubility = type: physicochemical

C[C@H](CC[C@@H](O)C1COC1)[C@H]1CC[C@H]2[C@@H]3[C@H](O)C[C@@H]4C[C@H](O)CC[C@]4(C)[C@H]3C[C@H](O)[C@]12C [Example 5, (24R)-(+)-26,27-epoxy-5β-cholestane-3α,7α,12α,24-tetrol]
Antithrombotic Effect: Thrombus weight ±S.E. (male SD rats): 11.2 ± 3.12 mg | Lethality (%) (male mice of ddY line): 80% | Survival Time ±S.E. (male mice of ddY line; time to respiratory arrest): 99.5 ± 7.21 s | GOT ±S.E. (male rats of SD line): 141 ± 13 IU/ℓ | Total Cholesterol ±S.E. (male rats of SD line): 405 ± 99 mg/dL | Triglyceride ±S.E. (male rats of SD line): 91 ± 33 mg/dL | solubility in H₂O (Qualitative solubility): insol in H₂O
